Experimental findings from patent publication US20240279202A1 (NURIX THERAPEUTICS, INC., priority 2021, published 2024) are described below.

The target in the experiment is T1, ITK (Homo sapiens, UniProt Q08881).
T1 sequence (Q08881 1-620): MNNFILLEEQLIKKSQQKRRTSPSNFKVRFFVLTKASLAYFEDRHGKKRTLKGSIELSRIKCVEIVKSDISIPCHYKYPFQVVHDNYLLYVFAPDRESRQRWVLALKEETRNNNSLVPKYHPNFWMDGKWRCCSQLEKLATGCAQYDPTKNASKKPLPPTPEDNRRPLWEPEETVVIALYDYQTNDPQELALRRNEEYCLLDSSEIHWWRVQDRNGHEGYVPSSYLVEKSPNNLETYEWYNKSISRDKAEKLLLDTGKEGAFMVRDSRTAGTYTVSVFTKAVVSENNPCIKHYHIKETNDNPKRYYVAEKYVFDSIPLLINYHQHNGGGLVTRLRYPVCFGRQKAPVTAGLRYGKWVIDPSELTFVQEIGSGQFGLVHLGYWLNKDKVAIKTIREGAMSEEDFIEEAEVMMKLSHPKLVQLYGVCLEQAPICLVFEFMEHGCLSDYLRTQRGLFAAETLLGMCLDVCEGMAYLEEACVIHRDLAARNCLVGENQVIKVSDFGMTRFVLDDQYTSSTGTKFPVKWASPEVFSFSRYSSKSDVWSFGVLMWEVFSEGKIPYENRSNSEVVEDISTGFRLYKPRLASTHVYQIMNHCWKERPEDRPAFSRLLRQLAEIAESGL
The experiment in a line: ITK degradation MSD (Meso Scale Discovery) assay. In kind it is cell-based. Particulars: Jurkat or Molt4 cells, 4 or 6 hrs. Further details: either human Jurkat (Clone E6-1 ATCC TIB-152) or Motl4 (ATCC CRL-1552), were plated; endogenous in cells; host or cells: Jurkat clone E6-1 (ATCC TIB-152) or Molt4 (ATCC CRL-1552). The method, then: ITK Degradation MSD (Meso Scale Discovery) Assay Compound dilution series (7-point, 5 fold dilutions in DMSO, rows B-H with replicate in Column 1⁄2, 3⁄4, 5⁄6, 7,8, at 2000× the final required concentrations were prepared in 96 well plates (Falcon, cat. no. 353077). Row A, Column 1-8 were control DMSO. The 2000× solutions ranged from 2 mM to 128 nM (final assay concentration range 1 μM to […]). The 2000× solutions were added to cells in […], for a final DMSO concentration of 0.5% and final assay compound concentration of 1×. For the cells, either human Jurkat (Clone E6-1 ATCC TIB-152) or Motl4 (ATCC CRL-1552), were plated at 1×10^6 cells/mL, 100 μL/well ([…]) in complete RPMI (10% FBS, 1% L-glutamine). Cells were incubated for 4 or 6 hrs at 32° C./6% CO2. Following incubation, plates were centrifuged at 1200 rpm for 5 min. supernatant was removed and 50 μL of cell lysis buffer ((MSD Tris lysis buffer (R60TX), Complete Mini EDTA-free protease inhibitor (Sigma 11836170001), Protease Inhibitor Cocktail (Sigma, P2714), Phosphatase Inhibitor Cocktail 2 and 3 (Sigma, P5726 and P0044), and Benzonase (Sigma, E1014)) was added to each well. Plates were sealed and shook at 4° C. for 30 min. Plates were centrifuged and 45 μL was removed for plate assays. Assay plate preparation: Meso Scale Discovery (MSD) multi-array sm spot 96 well plates (Goat anti-Rabbit L^45-RA), were blocked with 3% BSA blocking buffer (3% Bovine Serum Albumin (Sigma A3059)+TBS 0.2% Tween-20) for 1 hr with gentle rocking at room temperature. Plates were then washed with 200 μL of 1× TBST (TBS 0.2% Tween-20) 3 times. After last wash, liquid was removed and 50 μL per well of capture antibody (abcam ITK Y402-ab32507) was added to plates at a 1:1000 dilution in blocking buffer (above). Plates were sealed and rocked at room temperature for 2 hrs. Plates were then washed 3 times with 200 μL of 1× TBST. After last wash, liquid was removed and 45 μL of cell lysate (from above) was added to each plate. Plates were sealed and rocked overnight at 4° C. Next day, cell lysates were removed, and assay plates were washed 3 times with 200 μL of 1× TBST. After last wash, liquid was removed and detection antibody (CST ITK (2F12) #2380) was added at 50 μL per well at a dilution of 1:1000 in blocking buffer. Plates were sealed and rocked at room temperature for 2 hrs. Plates were washed 3 times with 200 uL of 1× TBST. After last wash, liquid was removed, MSD Mouse anti-Rabbit sulfo tag (R32AC-1) was diluted to 1:1000 in blocking buffer. 50 μL was added to each well on the plate. Plates were sealed and incubated at room temperature for 1 hr. Plates were washed 3 times with 200 μL of 1× TBST. After last wash, liquid was removed and 150 μL of 1× MSD Read Buffer T ([…]) was then added to each well for ECL read out. For reading ECL signal, plate is read on a Meso Scale Discovery (MSD) MESO Sector S 600 plate reader. Percent ITK in then calculated as described below. Percent ITK remaining per sample was calculated as follows: [formula] Using Graphpad Prism, % ITK remaining values were plotted as a function of compound concentration. To determine DC50 and Dmax values, resulting curves were fit to the Prism curve-fitting equation “log(inhibitor) vs response-Variable slope (four parameters)” (reported best fit value IC50 used as DC50).

Consider `CN(C(=O)CCC1CCN(c2ccc3c(c2)C(=O)N(C2CCC(=O)NC2=O)C3=O)C1)c1ccc2cc(-c3n[nH]c4c3CCC(C)(C)C4)[nH]c2c1` (centres unmarked) [Compound 1, N-(2-(6,6-dimethyl-4,5,6,7-tetrahydro-1H-indazol-3-yl)-1H-indol-6-yl)-3-(1-(2-(2,6-dioxopiperidin-3-yl)-1,3-dioxoisoindolin-5-yl)pyrrolidin-3-yl)-N-methylpropanamide], for which the half-maximal degradation concentration (DC50) (commonly the concentration giving 50% degradation) stood at 7 nM and the greatest degradation seen (Dmax) (usually the greatest extent of degradation seen) was found to be 87%.

In turn, `CN(C(=O)CCN1CCN(c2ccc3c(c2)C(=O)N(C2CCC(=O)NC2=O)C3=O)CC1)c1ccc2cc(-c3n[nH]c4c3CCC(C)(C)C4)[nH]c2c1` (centres unmarked) [Compound 2, N-(2-(6,6-dimethyl-4,5,6,7-tetrahydro-1H-indazol-3-yl)-1H-indol-6-yl)-3-(4-(2-(2,6-dioxopiperidin-3-yl)-1,3-dioxoisoindolin-5-yl)piperazin-1-yl)-N-methylpropanamide] came in with a 50% degradation concentration (DC50) of 1.1 nM and a Dmax of 84%.

Regarding `C[C@@H](C(=O)N(C)c1ccc2cc(-c3n[nH]c4c3CCC(C)(C)C4)[nH]c2c1)N1CCN(CC2CCN(c3ccc4c(c3)n(C)c(=O)n4C3CCC(=O)NC3=O)CC2)CC1` (stereo partly drawn) [Compound 6, (2S)—N-(2-(6,6-dimethyl-4,5,6,7-tetrahydro-1H-indazol-3-yl)-1H-indol-6-yl)-2-(4-((1-(1-(2,6-dioxopiperidin-3-yl)-3-methyl-2-oxo-2,3-dihydro-1H-benzo[d]imidazol-5-yl)piperidin-4-yl)methyl)piperazin-1-yl)-N-methylpropanamide], it took 0.0041 nM to reach half-maximal degradation (DC50) and the maximal degradation (Dmax) came to 81%.

Turning to `C[C@@H](C(=O)N(C)c1ccc2cc(-c3n[nH]c4c3CCC(C)(C)C4)[nH]c2c1)N1CCN(CC2CCN(c3ccc(C(=O)NC4CCC(=O)NC4=O)nc3)CC2)CC1` (stereo partly drawn) [Compound 7, 5-(4-((4-((S)-1-((2-(6,6-dimethyl-4,5,6,7-tetrahydro-1H-indazol-3-yl)-1H-indol-6-yl)(methyl)amino)-1-oxopropan-2-yl)piperazin-1-yl)methyl)piperidin-1-yl)-N-(2,6-dioxopiperidin-3-yl)picolinamide], the DC50 was 10 nM and the Dmax amounted to 83%.

In the case of `C[C@@H](C(=O)N(C)c1ccc2cc(-c3n[nH]c4c3CCC(C)(C)C4)[nH]c2c1)N1CCN(C[C@H]2CCN(c3ccc4c(c3)C(=O)N(C3CCC(=O)NC3=O)C4=O)C2)CC1` (stereo partly drawn) [Compound 33, (2S)—N-(2-(6,6-dimethyl-4,5,6,7-tetrahydro-1H-indazol-3-yl)-1H-indol-6-yl)-2-(4-(((3R)-1-(2-(2,6-dioxopiperidin-3-yl)-1,3-dioxoisoindolin-5-yl)pyrrolidin-3-yl)methyl)piperazin-1-yl)-N-methylpropanamide], the half-maximal degradation concentration (DC50) came out at 1.6 nM and the Dmax came to 87%.

`C[C@@H](C(=O)N(C)c1ccc2cc(-c3n[nH]c4c3CCC(C)(C)C4)[nH]c2c1)N1CCN(C(=O)C2CN(C3CCN(c4ccc5c(c4)C(=O)N(C4CCC(=O)NC4=O)C5=O)CC3)C2)CC1` (stereo partly drawn) [Compound 34, (2S)—N-(2-(6,6-dimethyl-4,5,6,7-tetrahydro-1H-indazol-3-yl)-1H-indol-6-yl)-2-(4-(1-(1-(2-(2,6-dioxopiperidin-3-yl)-1,3-dioxoisoindolin-5-yl)piperidin-4-yl)azetidine-3-carbonyl)piperazin-1-yl)-N-methylpropanamide]: it took 1 nM to reach half-maximal degradation (DC50) and the Dmax amounted to 86%.

Regarding `CN(C(=O)C1CN(C2CCN(c3ccc4c(c3)C(=O)N(C3CCC(=O)NC3=O)C4=O)CC2)C1)c1ccc2cc(-c3n[nH]c4c3CCC(C)(C)C4)[nH]c2c1` (centres unmarked) [Compound 35, N-(2-(6,6-dimethyl-4,5,6,7-tetrahydro-1H-indazol-3-yl)-1H-indol-6-yl)-1-(1-(2-(2,6-dioxopiperidin-3-yl)-1,3-dioxoisoindolin-5-yl)piperidin-4-yl)-N-methylazetidine-3-carboxamide], the 50% degradation concentration (DC50) was found to be 8 nM and the Dmax turned out to be 83%.
